Where a SMILES comes first, the peptide text is derived from it.
What follows are compounds tested on C.albicans UP10 cells. Conditions: 6 h.
For `CC(C)[C@H](NC(=O)CNC(=O)[C@H](Cc1ccc(O)cc1)NC(=O)CN)C(=O)N[C@@H](CC(N)=O)C(N)=O` [Heavy chain CDR-1] (H-GYGVN-NH2; N-terminus and C-terminus assumed), the IC50 was 267 nM. `CC[C@H](C)[C@H](NC(=O)[C@@H](N)CCSC)C(=O)N[C@@H](Cc1c[nH]c2ccccc12)C(=O)NCC(=O)N[C@@H](CC(=O)O)C(=O)NCC(=O)N[C@@H](CO)C(=O)N[C@H](C(=O)N[C@@H](CC(=O)O)C(=O)N[C@@H](Cc1ccc(O)cc1)C(=O)N[C@@H](CC(N)=O)C(=O)N[C@@H](CO)C(=O)N[C@@H](C)C(=O)N[C@@H](CC(C)C)C(N)=O)[C@@H](C)O` [Heavy chain CDR-2] (H-MIWGDGSTDYNSAL-NH2; N-terminus and C-terminus assumed) was tested, and the IC50 was 117 nM. `CSCC[C@H](NC(=O)[C@H](C)NC(=O)[C@H](Cc1ccc(O)cc1)NC(=O)[C@@H](N)CC(C)C)C(N)=O` [Heavy chain CDR-3] (H-LYAM-NH2; N-terminus and C-terminus assumed) showed an IC50 of 109 nM. `CSCC[C@H](NC(=O)[C@H](Cc1ccc(O)cc1)NC(=O)[C@H](CO)NC(=O)[C@@H](NC(=O)[C@H](CO)NC(=O)[C@H](CO)NC(=O)[C@H](CO)NC(=O)[C@H](C)NC(=O)[C@@H](N)CO)C(C)C)C(=O)N[C@@H](Cc1ccc(O)cc1)C(N)=O` [Light chain CDR-1] (H-SASSSVSYMY-NH2; N-terminus and C-terminus assumed) gave an IC50 of 692 nM. In the case of `CC(C)C[C@H](NC(=O)[C@H](CC(N)=O)NC(=O)[C@H](CO)NC(=O)[C@@H](NC(=O)[C@@H](N)CC(C)C)[C@@H](C)O)C(=O)N[C@@H](C)C(=O)N[C@@H](CO)C(N)=O` [Light chain CDR-2] (H-LTSNLAS-NH2; N-terminus and C-terminus assumed), the IC50 is reported as 234 nM. In the case of `NC(=O)CC[C@H](NC(=O)[C@@H](N)CCC(N)=O)C(=O)N[C@@H](Cc1c[nH]c2ccccc12)C(=O)N[C@@H](CO)C(=O)N[C@@H](CO)C(=O)N[C@@H](CC(N)=O)C(=O)N1CCC[C@H]1C(=O)N[C@@H](Cc1ccc(O)cc1)C(N)=O` [Light chain CDR-3] (H-QQWSSNPY-NH2; N-terminus and C-terminus assumed), the IC50 is reported as 200 nM. `CSCC[C@H](NC(=O)[C@@H](NC(=O)[C@@H](NC(=O)[C@H](CCCCN)NC(=O)[C@H](C)N)C(C)C)[C@@H](C)O)C(=O)N[C@H](C(=O)N[C@@H](CS)C(=O)N[C@@H](CO)C(=O)N[C@@H](C)C(N)=O)[C@@H](C)O` [SEQ ID 14] (H-AKVTMTCSA-NH2; N-terminus and C-terminus assumed) was tested, and the IC50 was 50000 nM. Work on `CSCC[C@H](NC(=O)[C@@H](NC(=O)[C@@H](NC(=O)[C@H](CCCCN)NC(=O)[C@H](C)N)C(C)C)[C@@H](C)O)C(=O)N[C@H](C(=O)N[C@@H](CS)C(=O)N[C@@H](CO)C(N)=O)[C@@H](C)O` [SEQ ID 15] (H-AKVTMTCS-NH2; N-terminus and C-terminus assumed) yielded an IC50 of 23000 nM. `CSCC[C@H](NC(=O)[C@@H](NC(=O)[C@@H](NC(=O)[C@H](CCCCN)NC(=O)[C@H](C)N)C(C)C)[C@@H](C)O)C(=O)N[C@H](C(=O)N[C@@H](CS)C(N)=O)[C@@H](C)O` [SEQ ID 16] (H-AKVTMTC-NH2; N-terminus and C-terminus assumed) was tested, and the IC50 was 600 nM. `CSCC[C@H](NC(=O)[C@@H](NC(=O)[C@@H](NC(=O)[C@H](CCCCN)NC(=O)[C@H](C)N)C(C)C)[C@@H](C)O)C(=O)N[C@H](C(N)=O)[C@@H](C)O` [SEQ ID 17] (H-AKVTMT-NH2; N-terminus and C-terminus assumed) was tested, and the IC50 was 730000 nM. `CSCC[C@H](NC(=O)[C@@H](NC(=O)[C@@H](NC(=O)[C@H](CCCCN)NC(=O)[C@H](C)N)C(C)C)[C@@H](C)O)C(N)=O` [SEQ ID 18] (H-AKVTM-NH2; N-terminus and C-terminus assumed) showed an IC50 of 25000 nM. `CC(C)[C@H](NC(=O)[C@H](CCCCN)NC(=O)[C@H](C)N)C(=O)N[C@H](C(N)=O)[C@@H](C)O` [SEQ ID 19] (H-AKVT-NH2; N-terminus and C-terminus assumed) showed an IC50 of 710000 nM. With `CC(C)[C@H](NC(=O)[C@H](CCCCN)NC(=O)[C@H](C)N)C(N)=O` [SEQ ID 20] (H-Ala-Lys-Val-NH2; N-terminus and C-terminus assumed) the IC50 was 10000 nM.

Each compound was assayed on LLC-MK2 rhesus monkey kidney cells. Conditions: not given.
For `CSCC[C@H](NC(=O)[C@@H](NC(=O)[C@@H](NC(=O)[C@H](CCCCN)NC(=O)[C@H](C)N)C(C)C)[C@@H](C)O)C(=O)N[C@H](C(=O)N[C@@H](CS)C(=O)N[C@@H](CO)C(=O)N[C@@H](C)C(=O)N[C@@H](CO)C(N)=O)[C@@H](C)O` [KM] (H-AKVTMTCSAS-NH2), the “toxic effects on cell viability” value was “no toxic effects”.

These compounds were tested on fluconazole-resistant (AIDS 68) C.albicans. Conditions: day 0; rats; 100 μg fluconazole at 1, 24, 48 h.
Assay type: in vivo, Candida albicans
`OC(Cn1cncn1)(Cn1cncn1)c1ccc(F)cc1F` [fluconazole] was tested, and the “C. albicans vaginal CFU (×10^3) (±SD)” value was >100 ×10^3.

Same assay, conditions: day 7; rats; 100 μg fluconazole at 1, 24, 48 h
In the case of `OC(Cn1cncn1)(Cn1cncn1)c1ccc(F)cc1F` [fluconazole], the “C. albicans vaginal CFU (×10^3) (±SD)” value is reported as 64 ± 6 ×10^3.

Same assay, conditions: day 14; rats; 100 μg fluconazole at 1, 24, 48 h
`OC(Cn1cncn1)(Cn1cncn1)c1ccc(F)cc1F` [fluconazole] was tested, and the “C. albicans vaginal CFU (×10^3) (±SD)” value was 48 ± 3 ×10^3.

Same assay, conditions: day 28; rats; 100 μg fluconazole at 1, 24, 48 h
With `OC(Cn1cncn1)(Cn1cncn1)c1ccc(F)cc1F` [fluconazole] the “C. albicans vaginal CFU (×10^3) (±SD)” value was 12 ± 4 ×10^3.
